Measurements from patent US20230331779A1, “BISPECIFIC FUSION POLYPEPTIDE COMPOUND” (SHAANXI MICOT TECHNOLOGY CO., LTD., priority 2020, published 2023).
Read-outs that look alike come from different tables or passages of the source. Values belong to the molecule of their own block, whether it stands above or below them.

What was measured:
[1] = Effect of single intravenous injection on blood calcium in normal rats; format: in vivo, rat; settings: for blood calcium level after a single intravenous bolus injection: normal SD rats
Description: (§1) Test method: SPF grade SD rats, weighing 250-280 g, were randomly divided into 7 groups, 6 administration groups and 1 blank control group (Vehicle=normal saline). The test samples were prepared into a solution with normal saline for administration. The test compound was administered by a single tail vein injection (1 mL/kg) at a dose of 0.5 mg/kg, 1.5 mg/kg and 4.5 mg/kg, respectively. Serum calcium (mmol/L) and phosphorus levels (mmol/L) were measured at 0 hour and at 4, 8 and 16 hours after administration.
(§2) Data processing: The concentrations of PTH, calcium and phosphorus in each group and at each time point were statistically analyzed using the graphpad 6.0 software.

[2] = Effect of single intravenous injection on blood phosphorus in normal rats; format: in vivo, rat; settings: for blood phosphorus level after a single intravenous bolus injection: normal SD rats
Description: as §1, §2

[3] = Cortical bone porosity in adenine-gavage SHPT rats (Micro CT of femur); format: in vivo, rat; settings: 3.0 mg/kg s.c. three times a week for six weeks, Mean ± SEM
Description: According to the Yokozawz method, SD rats were given adenine gavage to establish an animal model of chronic renal failure, and fed with a high-phosphorus diet to induce a model of secondary hyperparathyroidism. Rats were fed until the end of the experiment, and model rats were screened according to the content of PTH in plasma. According to the PTH content and body weight, the model rats were randomly divided into 5 groups: a normal saline group, an etelcalcetide (3.0 mg/kg, dissolved in normal saline) group, 3 groups of Example 1 (1.0 mg/kg, 2.0 mg/kg and 4.0 mg/kg, dissolved in normal saline), and subcutaneously administered three times a week for six consecutive weeks at 1.0 ml/kg per rat. Six weeks later, the left femur of the rat was taken, the muscle and connective tissue were removed, and the femur was placed in a 4% formalin solution. Micro CT scanning was performed 24 hours later, and data was subjected analysis.

[4] = Plasma PTH in 5/6 nephrectomy rats (secondary hyperparathyroidism model); format: in vivo, rat; settings: 3.0 mg/kg s.c. three times a week
Description: Male SD rats were divided into a sham operation group and a 5/6 nephrectomy group (5/6Nx). Rats in the nephrectomy group underwent 5/6 nephrectomy, and were fed with high-phosphorus diet for two weeks after the operation to accelerate the induction of the secondary hyperparathyroidism rat model. After being fed with high-phosphorus diet for 3 weeks, the model rats were randomly divided into 6 groups, a 5/6Nx group (Vehicle), a positive control drug etelcalcetide group (3.0 mg/kg) and 4 groups of the compound of Example 1 (0.5, 1.0, 2.0, 4.0 mg/kg). The rats were administered subcutaneously three times a week for 6 consecutive weeks. Before the first administration, after the first administration, and 4 hours after administration in the 2nd, 4th, and 6th week, blood samples were collected from rats, and the plasma and serum were separated for the detection of the content of PTH in the plasma at each time point.

[5] = molecular target: T1, calcium-sensing receptor (CASR) (Homo sapiens, UniProt P41180); experiment: CaSR activation, HTRF IP-1 competition method in HEK293-CaSR cells; format: cell-based
T1 construct: expressed in transfected cells; host or cells: HEK293-CaSR cells
T1 sequence (P41180 20-1078): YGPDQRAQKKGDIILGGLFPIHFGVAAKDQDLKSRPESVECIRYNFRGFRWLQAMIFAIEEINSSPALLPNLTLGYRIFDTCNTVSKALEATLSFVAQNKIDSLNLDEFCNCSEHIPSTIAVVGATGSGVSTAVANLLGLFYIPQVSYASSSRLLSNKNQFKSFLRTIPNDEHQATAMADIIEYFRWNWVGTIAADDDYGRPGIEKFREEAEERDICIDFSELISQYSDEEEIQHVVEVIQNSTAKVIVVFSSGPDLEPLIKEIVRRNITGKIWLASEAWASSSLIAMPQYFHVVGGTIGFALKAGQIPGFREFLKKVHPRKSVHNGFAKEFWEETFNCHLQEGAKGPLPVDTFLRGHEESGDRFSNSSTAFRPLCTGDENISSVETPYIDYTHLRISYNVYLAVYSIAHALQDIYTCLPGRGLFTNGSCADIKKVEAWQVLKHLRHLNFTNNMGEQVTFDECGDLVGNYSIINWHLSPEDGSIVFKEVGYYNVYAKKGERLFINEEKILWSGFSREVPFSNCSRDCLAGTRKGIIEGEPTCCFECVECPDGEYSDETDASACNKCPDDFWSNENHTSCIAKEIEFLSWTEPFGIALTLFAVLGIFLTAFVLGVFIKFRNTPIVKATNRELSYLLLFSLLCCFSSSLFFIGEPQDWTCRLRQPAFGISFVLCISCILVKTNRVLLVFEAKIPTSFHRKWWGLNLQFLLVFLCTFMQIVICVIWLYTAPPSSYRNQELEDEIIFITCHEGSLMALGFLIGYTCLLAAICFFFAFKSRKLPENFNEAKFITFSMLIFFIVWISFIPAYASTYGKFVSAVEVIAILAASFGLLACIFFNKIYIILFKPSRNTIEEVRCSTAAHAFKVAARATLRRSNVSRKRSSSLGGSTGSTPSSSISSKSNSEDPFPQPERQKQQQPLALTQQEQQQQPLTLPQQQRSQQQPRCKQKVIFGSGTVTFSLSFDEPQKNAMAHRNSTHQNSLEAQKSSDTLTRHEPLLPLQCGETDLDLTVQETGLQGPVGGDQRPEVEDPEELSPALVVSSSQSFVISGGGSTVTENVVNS
Description: In the CaSR activation experiment, the Homogeneous Time-Resolved Fluorescence (HTRF) IP-1 (myolnositol 1 phosphate) competition method was used to detect the effect of the polypeptide of Example 1 on CaSR.

[6] = system: osteoblast MC3T3-E1 Subclone 4 cells; experiment: CyQUANT in vitro proliferation of osteoblast cells; format: cell-based; settings: FIG. 1; Example 1 effect more pronounced than that of OGP
Description: (§3) The CyQUANT cell proliferation detection kit was used to determine the in vitro proliferation effect of the polypeptide of Example 1 on osteoblast MC3T3-E1 Subclone 4 and fibroblast NIH/3T3 cells. Osteogenic growth peptide (OGP) was used as a positive control in the experiment. The polypeptide of Example 1 and OGP were prepared to the following concentrations: 10^−8 mol/L, 10^−9 mol/L, 10^−10 mol/L, 10^−11 mol/L, 10^−12 mol/L, 10^−13 mol/L, 10^−14 mol/L, 10^−15 mol/L and 10^−16 mol/L. 100 μL of medium was discarded from each well of the cell plate to be tested, and 100 μL of 2×CyQuant detection reagent was added to each well. The plate was then placed in a 37° C., 5% CO2 incubator for 60 min. Fluorescence values were read in bottom-reading mode with excitation and emission wavelengths of 480/535 nm.
(§4) % relative to Control=(reading value of compound well−reading value of blank control well)/(reading value of base control well−reading value of blank control well)×100

fibroblast NIH/3T3 cells = experiment: CyQUANT in vitro proliferation of fibroblast cells; format: cell-based; settings: FIG. 1; comparable effective dose for Example 1 and OGP
Description: as §3, §4

[7] = 0.5 mg/kg i.v., 0 h (before administration)
[8] = 1.5 mg/kg i.v., 0 h (before administration)
[9] = 4.5 mg/kg i.v., 0 h (before administration)

Molecule: Example 2: Ac-D-Cys-D-Ala-D-Arg-D-Arg-D-Arg-D-Ala-D-Arg-NH2 linked by disulfide bond to H-D-Tyr-D-Arg-D-Phe-Gly-Gly-L-Cys-OH (CARRRAR; D-amino acids, Ac, NH2, disulfide-linked second peptide; MOD_RES (1)..(7) Cys, Ala and Arg are D-amino acids; MOD_RES (1)..(1) Cys is acetylated; MOD_RES (7)..(7) Arg is amidated; BINDING (1)..(1) Cys is linked ot Cys in SEQ ID NO 6 via disulfide bond)
- blood calcium level after a single intravenous bolus injection [1, 7]: 2.42 ± 0.02 mmol/L
- blood calcium level after a single intravenous bolus injection ([1]; 0.5 mg/kg i.v., 4 h): 2.05 ± 0.04 mmol/L
- blood calcium level after a single intravenous bolus injection ([1]; 0.5 mg/kg i.v., 8 h): 2.20 ± 0.02 mmol/L
- blood calcium level after a single intravenous bolus injection ([1]; 0.5 mg/kg i.v., 16 h): 2.27 ± 0.01 mmol/L
- blood calcium level after a single intravenous bolus injection [1, 8]: 2.41 ± 0.06 mmol/L
- blood calcium level after a single intravenous bolus injection ([1]; 1.5 mg/kg i.v., 4 h): 2.02 ± 0.06 mmol/L
- blood calcium level after a single intravenous bolus injection ([1]; 1.5 mg/kg i.v., 8 h): 1.84 ± 0.04 mmol/L
- blood calcium level after a single intravenous bolus injection ([1]; 1.5 mg/kg i.v., 16 h): 2.10 ± 0.03 mmol/L
- blood calcium level after a single intravenous bolus injection [1, 9]: 2.45 ± 0.02 mmol/L
- blood calcium level after a single intravenous bolus injection ([1]; 4.5 mg/kg i.v., 4 h): 1.79 ± 0.03 mmol/L
- blood calcium level after a single intravenous bolus injection ([1]; 4.5 mg/kg i.v., 8 h): 1.53 ± 0.03 mmol/L
- blood calcium level after a single intravenous bolus injection ([1]; 4.5 mg/kg i.v., 16 h): 1.64 ± 0.17 mmol/L
- blood calcium levels compared with the concentration before administration (in words) ([1]; normal rats, single tail vein bolus injection, each administration group, P≤0.01): decreased significantly
- time at which serum phosphorus level reached the highest ([2]; high-dose group (4.5 mg/kg)): 8 h
- time at which serum phosphorus level reached the highest ([2]; low-dose group (0.5 mg/kg and 1.5 mg/kg)): 4 h
- blood phosphorus level after a single intravenous bolus injection [2, 7]: 2.70 ± 0.06 mmol/L
- blood phosphorus level after a single intravenous bolus injection ([2]; 0.5 mg/kg i.v., 4 h): 2.78 ± 0.14 mmol/L
- blood phosphorus level after a single intravenous bolus injection ([2]; 0.5 mg/kg i.v., 8 h): 2.67 ± 0.06 mmol/L
- blood phosphorus level after a single intravenous bolus injection ([2]; 0.5 mg/kg i.v., 16 h): 2.49 ± 0.08 mmol/L
- blood phosphorus level after a single intravenous bolus injection [2, 8]: 2.65 ± 0.08 mmol/L
- blood phosphorus level after a single intravenous bolus injection ([2]; 1.5 mg/kg i.v., 4 h): 3.04 ± 0.08 mmol/L
- blood phosphorus level after a single intravenous bolus injection ([2]; 1.5 mg/kg i.v., 8 h): 3.05 ± 0.08 mmol/L
- blood phosphorus level after a single intravenous bolus injection ([2]; 1.5 mg/kg i.v., 16 h): 2.47 ± 0.06 mmol/L
- blood phosphorus level after a single intravenous bolus injection [2, 9]: 2.63 ± 0.02 mmol/L
- blood phosphorus level after a single intravenous bolus injection ([2]; 4.5 mg/kg i.v., 4 h): 3.31 ± 0.08 mmol/L
- blood phosphorus level after a single intravenous bolus injection ([2]; 4.5 mg/kg i.v., 8 h): 3.67 ± 0.1 mmol/L
- blood phosphorus level after a single intravenous bolus injection ([2]; 4.5 mg/kg i.v., 16 h): 2.49 ± 0.06 mmol/L
- effect on blood phosphorus concentration (in words) ([2]; normal rats, single tail vein bolus injection): increasing the blood phosphorus concentration

Molecule: CC(=O)N[C@H](CSSC[C@H](N)C(=O)O)C(=O)N[C@H](C)C(=O)N[C@H](CCCNC(=N)N)C(=O)N[C@H](CCCNC(=N)N)C(=O)N[C@H](CCCNC(=N)N)C(=O)N[C@H](C)C(=O)N[C@H](CCCNC(=N)N)C(N)=O [Etelcalcetide, etelcalcetide]
- Cortical bone porosity [3]: 4.13 ± 2.27%
- PTH change in plasma 4 h after administration ([4]; 2 weeks): −95.57 ± 0.28%
- PTH change in plasma 4 h after administration ([4]; 4 weeks): −93.81 ± 0.59%
- PTH change in plasma 4 h after administration ([4]; 6 weeks): −92.63 ± 0.77%
- PTH change in plasma 4 h after administration ([4]; first administration): −92.03 ± 0.67%

- EC50 ([5]; Ca2+ concentration of 1.2 mM, read-out: EC50, agonistic activity on HEK293-CaSR cells): 84.7 µM
- EC50 ([5]; in the absence of Ca2+, read-out: EC50, agonist activity on HEK293-CaSR cells): 980 µM
Molecule: CC(=O)N[C@H](CSSC[C@H](NC(=O)CNC(=O)CNC(=O)[C@@H](Cc1ccccc1)NC(=O)C(C)(C)NC(=O)[C@H](N)Cc1ccc(O)cc1)C(=O)O)C(=O)N[C@H](C)C(=O)N[C@H](CCCNC(=N)N)C(=O)N[C@H](CCCNC(=N)N)C(=O)N[C@H](CCCNC(=N)N)C(=O)N[C@H](C)C(=O)N[C@H](CCCNC(=N)N)C(N)=O [Example 1]

Molecule: Osteogenic growth peptide [OGP]
- concentration that significantly stimulated proliferation of osteoblast MC3T3-E1 Subclone 4 cells [6]: 10^−8 to 10^−16 M
- concentration that significantly stimulates proliferation of fibroblast NIH3T3 cells (effective dose) (fibroblast NIH/3T3 cells): 10^−8 M
